From patent US8927559B2, “Quinazolinone-type compounds as CRTH2 antagonists” (Merck Sharp & Dohme Corp., priority 2010, dated 2015)
Several values for one entry are separate records, joined by “and”; a condition that tells them apart may be missing. Identical values can stand only once.

target: T1, CRTH2 receptor (hCRTH2) (Homo sapiens, UniProt Q9Y5Y4); assay: Radioligand binding assay ([3H]PGD2 competition, membranes of HEK-hCRTH2 cell line); details: 3.0 nM [3H]PGD2, HEK-hCRTH2 membranes, 60 min, room temperature; read-out: Ki
T1 construct: expressed in transfected cells; host or cells: HEK cells (HEK-hCRTH2 cell line), membranes
T1 sequence (Q9Y5Y4 1-395): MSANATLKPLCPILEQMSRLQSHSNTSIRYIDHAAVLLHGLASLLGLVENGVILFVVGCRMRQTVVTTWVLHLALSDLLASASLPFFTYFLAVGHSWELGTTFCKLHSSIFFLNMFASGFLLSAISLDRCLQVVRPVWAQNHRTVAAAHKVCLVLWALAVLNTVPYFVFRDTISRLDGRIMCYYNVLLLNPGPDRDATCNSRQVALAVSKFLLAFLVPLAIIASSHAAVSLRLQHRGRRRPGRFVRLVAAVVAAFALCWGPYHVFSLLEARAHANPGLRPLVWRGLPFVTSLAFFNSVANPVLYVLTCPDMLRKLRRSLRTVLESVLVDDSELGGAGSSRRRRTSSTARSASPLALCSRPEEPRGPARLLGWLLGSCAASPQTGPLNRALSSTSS
Description: Competing ligands were diluted in dimethylsulfoxide (Me2SO) that was kept constant at 1% (v/v) of the final incubation volume. The reaction was initiated by the addition of 8-20 μg of membrane protein prepared from a HEK-hCRTH2 cell line. Total and non-specific binding were determined in the absence and the presence of […] PGD2, respectively. […] The reaction was routinely conducted for 60 min at room temperature and terminated by rapid filtration through prewetted (0.3% polyethyleneimine) 96-well printed filtermate (Wallac) using a Tomtec harvester. After washing with cold buffer, the filter was dried for 2 minutes in microwave, and Meltilex Scintillator sheet (Wallac) was melted on for 2 min.

SMILES	Ki
N#Cc1ccc(C2CC(c3ccc4c(=O)n(-c5ccc(F)cc5)c(CCCCC(=O)O)nc4c3)=NO2)cc1 (stereo not drawn) [Example 15Q]	≤ 10 nM
CC(C)(C)OC(=O)N1CCC2(CC1)CC(c1ccc3c(=O)n(-c4ccc(Cl)cc4)c(CCCCC(=O)O)nc3c1)=NO2 [Example 15T]	≤ 10 nM
CC(=O)N1CCC2(CC1)CC(c1ccc3c(=O)n(-c4ccc(Cl)cc4)c(CCCCC(=O)O)nc3c1)=NO2 [Example 15U]	10 to 50 nM
COCC1(c2ccccc2)CC(c2ccc3c(=O)n(-c4ccc(F)cc4)c(CCCCC(=O)O)nc3c2)=NO1 (stereo not drawn) [Example 15V]	10 to 50 nM
COCC1(c2ccccc2)CC(c2ccc3c(=O)n(-c4ccc(Cl)cc4)c(CCCCC(=O)O)nc3c2)=NO1 (stereo not drawn) [Example 15W]	10 to 50 nM
O=C(O)CCCCc1nc2cc(C3=NOC4(CCCCC4)C3)ccc2c(=O)n1-c1ccc(F)cc1 [Example 15X]	≤ 10 nM
O=C(O)CCCCc1nc2cc(C3=NOC4(CCCCC4)C3)ccc2c(=O)n1-c1ccc(Cl)cc1 [Example 15Y]	≤ 10 nM
N#CC1CC2(CC(c3ccc4c(=O)n(-c5ccc(Cl)cc5)c(CCCCC(=O)O)nc4c3)=NO2)C1 (stereo not drawn) [Example 15Z]	≤ 10 nM
CC1(c2ccccc2)CC(c2ccc3c(=O)n(-c4ccc(Cl)cc4)c(CCCCC(=O)O)nc3c2)=NO1 (stereo not drawn) [Example 15i]	≤ 10 nM
COc1cccc(C2CC(c3ccc4c(=O)n(-c5ccc(Cl)cc5)c(CCCCC(=O)O)nc4c3)=NO2)c1 (stereo not drawn) [Example 15o]	≤ 10 nM
O=C(O)CCCCc1nc2cc(-c3cn(Cc4ccccc4)nn3)ccc2c(=O)n1-c1ccc(F)cc1 [Example 17, 5-[7-(1-benzyl-1H-1,2,3-triazol-4-yl)-3-(4-fluorophenyl)-4-oxo-3,4-dihydroquinazolin-2-yl]pentanoic acid]	≤ 10 nM
O=C(O)CCCCc1nc2cc(-c3c[nH]nn3)ccc2c(=O)n1-c1ccc(F)cc1 [Example 18, 5-[3-(4-fluorophenyl)-4-oxo-7-(1H-1,2,3-triazol-4-yl)-3,4-dihydroquinazolin-2-yl]pentanoic acid]	10 to 50 nM
O=C(O)CCCCc1nc2cc(-c3cn(Cc4ccc(F)cc4)nn3)ccc2c(=O)n1-c1ccc(F)cc1 [Example 19, 5-{7-[1-(4-fluorobenzyl)-1H-1,2,3-triazol-4-yl]-3-(4-fluorophenyl)-4-oxo-3,4-dihydroquinazolin-2-yl}pentanoic acid]	≤ 10 nM
CS(=O)(=O)c1ccc(Cn2cc(-c3ccc4c(=O)n(-c5ccc(F)cc5)c(CCCCC(=O)O)nc4c3)nn2)cc1 [Example 19D]	≤ 10 nM and 1.2 nM
O=C(O)CCCCc1nc2cc(-c3cn(-c4cccnc4)nn3)ccc2c(=O)n1-c1ccc(F)cc1 [Example 20, 5-{3-(4-fluorophenyl)-4-oxo-7-[1-(pyridin-3-yl)-1H-1,2,3-triazol-4-yl]-3,4-dihydroquinazolin-2-yl}pentanoic acid]	≤ 10 nM
O=C(O)CCCCc1nc2cc(-n3cc(C4CC4)nn3)ccc2c(=O)n1-c1ccc(F)cc1 [Example 21, 5-[7-(4-cyclopropyl-1H-1,2,3-triazol-1-yl)-3-(4-fluorophenyl)-4-oxo-3,4-dihydroquinazolin-2-yl]pentanoic acid]	≤ 10 nM
CC(C)(O)c1cn(-c2ccc3c(=O)n(-c4ccc(F)cc4)c(CCCCC(=O)O)nc3c2)nn1 [Example 21C]	10 to 50 nM
O=C(O)CCCCc1nc2cc(-n3cc(-c4ccccc4)nn3)ccc2c(=O)n1-c1ccc(F)cc1 [Example 21D]	≤ 10 nM

The remaining lines, values ahead:

Ki	SMILES
≤ 10 nM	O=C(O)CCCCc1nc2cc(-n3cc(Cc4ccccc4)nn3)ccc2c(=O)n1-c1ccc(F)cc1 [Example 21E]
10 to 50 nM	O=C(O)CCCCc1nc2cc(-c3nc(Cc4ccc(F)cc4)no3)ccc2c(=O)n1-c1ccc(F)cc1 [Example 22C]
≤ 10 nM	COc1ccccc1S(=O)(=O)NCc1cc(-c2ccc3c(=O)n(-c4ccc(F)cc4)c(CCCCC(=O)O)nc3c2)no1 [Example 24, 5-(3-(4-fluorophenyl)-7-(5-((2-methoxyphenylsulfonamido)methyl)isoxazol-3-yl)-4-oxo-3,4-dihydroquinazolin-2-yl)pentanoic acid]
≤ 10 nM	O=C(O)CCCCc1nc2cc(-c3cc(CNC(=O)c4ccccc4)on3)ccc2c(=O)n1-c1ccc(F)cc1 [Example 24F]
≤ 10 nM	Cc1ccc(S(=O)(=O)NCc2cc(-c3ccc4c(=O)n(-c5ccc(F)cc5)c(CCCCC(=O)O)nc4c3)no2)cc1 [Example 24G]
≤ 10 nM	O=C(O)CCCCc1nc2cc(-c3cc(CNS(=O)(=O)c4ccc(F)cc4)on3)ccc2c(=O)n1-c1ccc(F)cc1 [Example 24H]
≤ 10 nM	O=C(O)CCCCc1nc2cc(-c3cc(CNS(=O)(=O)Cc4ccccc4)on3)ccc2c(=O)n1-c1ccc(F)cc1 [Example 24J]
10 to 50 nM	CC(C)(C)c1ccc(S(=O)(=O)NCc2cc(-c3ccc4c(=O)n(-c5ccc(F)cc5)c(CCCCC(=O)O)nc4c3)no2)cc1 [Example 24L]
10 to 50 nM and 40.5 nM	O=C(O)CCCCc1nc2cc(-c3cc(CNS(=O)(=O)c4ccc(-c5ccccc5)cc4)on3)ccc2c(=O)n1-c1ccc(F)cc1 [Example 24M]
≤ 10 nM	O=C(O)CCCCc1nc2cc(-c3cc(CNS(=O)(=O)c4cc(F)cc(F)c4)on3)ccc2c(=O)n1-c1ccc(F)cc1 [Example 24N]
≤ 10 nM	O=C(O)CCCCc1nc2cc(-c3cc(CNS(=O)(=O)c4ccc(F)c(F)c4)on3)ccc2c(=O)n1-c1ccc(F)cc1 [Example 24P]
≤ 10 nM	CC(C)(C)OC(=O)NCc1cc(-c2ccc3c(=O)n(-c4ccc(F)cc4)c(CCCCC(=O)O)nc3c2)no1 [Example 24Q]
10 to 50 nM	O=C(O)CCCCc1nc2cc(-c3cc(CNC(=O)c4ccc(F)cc4)on3)ccc2c(=O)n1-c1ccc(F)cc1 [Example 24R]
≤ 10 nM	O=C(O)CCCCc1nc2cc(-c3cc(CNS(=O)(=O)c4ccc(OC(F)(F)F)cc4)on3)ccc2c(=O)n1-c1ccc(F)cc1 [Example 24i]
≤ 10 nM	O=C(O)CCCCc1nc2cc(-c3cc(CNS(=O)(=O)c4ccc(Cl)cc4)on3)ccc2c(=O)n1-c1ccc(F)cc1 [Example 24o]
≤ 10 nM and 1 nM	O=C(O)CCCCc1nc2cc(-c3cc(Cc4ccc(F)cc4)on3)ccc2c(=O)n1-c1ccc(F)cc1 [Example 25, 5-(7-(5-(4-fluorobenzyl)isoxazol-3-yl)-3-(4-fluorophenyl)-4-oxo-3,4-dihydroquinazolin-2-yl)pentanoic acid]
≤ 10 nM	O=C(O)CCCCc1nc2cc(-c3cc([C@H](O)c4ccc(F)cc4)on3)ccc2c(=O)n1-c1ccc(F)cc1 [Example 25C]
≤ 10 nM	O=C(O)CCCCc1nc2cc(-c3cc([C@@H](O)c4ccc(F)cc4)on3)ccc2c(=O)n1-c1ccccc1 [Example 25D]
≤ 10 nM	O=C(O)CCCCc1nc2cc(-c3cc([C@H](O)c4ccc(F)cc4)on3)ccc2c(=O)n1-c1ccccc1 [Example 25E]
≤ 10 nM	O=C(O)CCCCc1nc2cc(-c3cc(Cc4ccc(F)cc4)on3)ccc2c(=O)n1-c1ccccc1 [Example 25F]
≤ 10 nM	O=C(O)CCCCc1nc2cc(-c3cc(C(O)c4ccc5ccccc5n4)on3)ccc2c(=O)n1-c1ccc(F)cc1 (stereo not drawn) [Example 25G]
10 to 50 nM	O=C(O)CCCCc1nc2cc(-c3cc(C(O)c4ccc5ccccc5n4)on3)ccc2c(=O)n1-c1ccc(F)cc1 (stereo not drawn) [Example 25H]
≤ 10 nM	O=C(O)CCCCc1nc2cc(-c3cc(Cc4ccc5ccccc5c4)on3)ccc2c(=O)n1-c1ccc(F)cc1 [Example 25J]
≤ 10 nM	O=C(O)CCCCc1nc2cc(-c3cc(Cc4cnc5ccccc5n4)on3)ccc2c(=O)n1-c1ccc(F)cc1 [Example 25L]
